Data taken from patent publication US7659245B2, “Macrocylic inhibitors of hepatitis C virus” (Tibotec Pharmaceuticals Ltd, priority 2005, dated 2010).

What was measured:
[1] = system: HCV replicons (Huh-7 luc/neo cells, NS3-NS5B regions of HCV type 1b); test: Replicon assay: inhibition of HCV RNA replication in Huh-Luc cells (luciferase read-out); assay type: cell-based; conditions: Hepatitis C virus, Huh-7, 72 h, HCV type 1b replicon, luciferase activity after three days
Method: The in vitro antiviral activity against HCV of the compounds of formula (I) was tested in a cellular HCV replicon system based on Lohmann et al. (1999) Science 285:110-113, with the further modifications described by Krieger et al. (2001) Journal of Virology 75: 4614-4624 (incorporated herein by reference), which is further exemplified in the examples section. This model, while not a complete infection model for HCV, is widely accepted as the most robust and efficient model of autonomous HCV RNA replication currently available. […] It will be appreciated that it is important to distinguish between compounds that specifically interfere with HCV functions from those that exert cytotoxic or cytostatic effects in the HCV replicon model, and as a consequence cause a decrease in HCV RNA or linked reporter enzyme concentration. Assays are known in the field for the evaluation of cellular cytotoxicity based for example on the activity of mitochondrial enzymes using fluorogenic redox dyes such as resazurin. Furthermore, cellular counter screens exist for the evaluation of non-selective inhibition of linked reporter gene activity, such as firefly luciferase. Appropriate cell types can be equipped by stable transfection with a luciferase reporter gene whose expression is dependent on a constitutively active gene promoter, and such cells can be used as a counter-screen to eliminate non-selective inhibitors.
The compounds of formula (I) were examined for activity in the inhibition of HCV RNA replication in a cellular assay. […] The cellular assay was based on a bicistronic expression construct, as described by Lohmann et al. (1999) Science vol. 285 pp. 110-113 with modifications described by Krieger et al. (2001) Journal of Virology 75: 4614-4624, in a multi-target screening strategy. In essence, the method was as follows.
The assay utilized the stably transfected cell line Huh-7 luc/neo (hereafter referred to as Huh-Luc). This cell line harbors an RNA encoding a bicistronic expression construct comprising the wild type NS3-NS5B regions of HCV type 1b translated from an Internal Ribosome Entry Site (IRES) from encephalomyocarditis virus (EMCV), preceded by a reporter portion (FfL-luciferase), and a selectable marker portion (neo^R, neomycine phosphotransferase). The construct is bordered by 5′ and 3′ NTRs (non-translated regions) from HCV type 1b. Continued culture of the replicon cells in the presence of G418 (neo^R) is dependent on the replication of the HCV RNA. The stably transfected replicon cells that express HCV RNA, which replicates autonomously and to high levels, encoding inter alia luciferase, are used for screening the antiviral compounds.
The replicon cells were plated in 384 well plates in the presence of the test and control compounds which were added in various concentrations. Following an incubation of three days, HCV replication was measured by assaying luciferase activity (using standard luciferase assay substrates and reagents and a Perkin Elmer ViewLux™ ultraHTS microplate imager). Replicon cells in the control cultures have high luciferase expression in the absence of any inhibitor. The inhibitory activity of the compound on luciferase activity was monitored on the Huh-Luc cells, enabling a dose-response curve for each test compound. EC50 values were then calculated, which value represents the amount of the compound required to decrease by 50% the level of detected luciferase activity, or more specifically, the ability of the genetically linked HCV replicon RNA to replicate.

[2] = molecular target: full-length hepatitis C NS3 protease enzyme (HCV NS3/4A protease complexes) (Hepatitis C virus genotype 1a, UniProt P27958); test: Inhibition assay (enzymatic assay) of HCV NS3/4A protease; assay type: biochemical; conditions: enzyme 1 nM, 25 μM NS4A cofactor, 0.5 μM depsipeptide substrate, 30° C., competitive model
Method: The aim of this in vitro assay is to measure the inhibition of HCV NS3/4A protease complexes by the compounds of the present invention. This assay provides an indication of how effective compounds of the present invention would be in inhibiting HCV NS3/4A proteolytic activity.
The inhibition of full-length hepatitis C NS3 protease enzyme was measured essentially as described in Poliakov, 2002 Prot Expression & Purification 25 363 371. Briefly, the hydrolysis of a depsipeptide substrate, Ac-DED(Edans)EEAbuψ[COO]ASK(Dabcyl)-NH2 (AnaSpec, San José, USA), was measured spectrofluorometrically in the presence of a peptide cofactor, KKGSVVIVGRIVLSGK (Åke Engström, Department of Medical Biochemistry and Microbiology, Uppsala University, Sweden). [Landro, 1997 #Biochem 36 9340-9348]. The enzyme (1 nM) was incubated in 50 mM HEPES, pH 7.5, 10 mM DTT, 40% glycerol, 0.1% n-octyl-D-glucoside, with 25 μM NS4A cofactor and inhibitor at 30° C. for 10 min, whereupon the reaction was initiated by addition of 0.5 μM substrate. Inhibitors were dissolved in DMSO, sonicated for 30 sec. and vortexed. The solutions were stored at −20° C. between measurements.
The final concentration of DMSO in the assay sample was adjusted to 3.3%. The rate of hydrolysis was corrected for inner filter effects according to published procedures. [Liu, 1999 Analytical Biochemistry 267 331-335]. Ki values were estimated by non-linear regression analysis (GraFit, Erithacus Software, Staines, MX, UK), using a model for competitive inhibition and a fixed value for Km (0.15 μM). A minimum of two replicates was performed for all measurements.

full-length hepatitis C NS3 protease enzyme (HCV NS3/4A protease complexes), sequence (P27958 1027-1657, one chain of several): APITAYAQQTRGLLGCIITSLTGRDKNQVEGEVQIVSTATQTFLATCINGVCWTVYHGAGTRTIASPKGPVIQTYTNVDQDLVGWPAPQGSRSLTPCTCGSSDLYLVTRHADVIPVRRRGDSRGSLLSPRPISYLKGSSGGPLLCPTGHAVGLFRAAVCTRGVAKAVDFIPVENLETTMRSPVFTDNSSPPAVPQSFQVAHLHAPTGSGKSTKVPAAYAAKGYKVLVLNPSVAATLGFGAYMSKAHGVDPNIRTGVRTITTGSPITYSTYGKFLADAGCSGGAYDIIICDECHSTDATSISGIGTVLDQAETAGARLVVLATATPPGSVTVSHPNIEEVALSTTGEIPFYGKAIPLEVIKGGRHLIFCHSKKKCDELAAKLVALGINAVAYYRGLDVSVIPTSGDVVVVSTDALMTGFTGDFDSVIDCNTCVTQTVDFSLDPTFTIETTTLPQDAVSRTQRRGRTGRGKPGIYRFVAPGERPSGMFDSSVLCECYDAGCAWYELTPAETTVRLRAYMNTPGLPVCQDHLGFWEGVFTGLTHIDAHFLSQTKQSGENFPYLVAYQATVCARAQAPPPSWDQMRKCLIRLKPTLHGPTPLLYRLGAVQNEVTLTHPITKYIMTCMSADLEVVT

Row | SMILES | EC50 [1] [nM] | Ki [2] [nM]
1 | COc1cc2nc(-c3ccccc3)nc(O[C@@H]3C[C@H]4C(=O)N[C@]5(C(=O)NS(=O)(=O)C6CC6)C[C@H]5/C=C\CCCCN(C)C(=O)[C@@H]4C3)c2cc1C [Compound 114] | 0.5 to 199 | 0.1 to 4.9
2 | CC(C)c1csc(-c2nc(O[C@@H]3C[C@H]4C(=O)N[C@]5(C(=O)NS(=O)(=O)C6CC6)C[C@H]5/C=C\CCCCN(C)C(=O)[C@@H]4C3)c3ccccc3n2)n1 [Compound 44, Cyclopropanesulfonic acid {17-[2-(4-isopropyl-thiazol-2-yl)-quinazolin-4-yloxy-]-13-methyl-2,14-dioxo-3,13-diaza-tricyclo[13.3.0.0*4,6*]octadec-7-ene-4-carbonyl}-amide] | 0.5 to 199 | 0.1 to 4.9
3 | CN1CCCC/C=C\[C@@H]2C[C@@]2(C(=O)NS(=O)(=O)C2CC2)NC(=O)[C@@H]2C[C@@H](Oc3nc(N4CCOCC4)nc4ccccc34)C[C@H]2C1=O [Compound 36, Cyclopropanesulfonic acid [13-methyl-17-(2-morpholin-4-yl-quinazolin-4-yloxy)-2,14-dioxo-3,13-diaza-tricyclo[13.3.0.0*4,6*]octadec-7-ene-4-carbonyl]-amide] | 200 to 990 | 5 to 99.9
4 | CC(C)Nc1nc(O[C@@H]2C[C@H]3C(=O)N[C@]4(C(=O)NS(=O)(=O)C5CC5)C[C@H]4/C=C\CCCCN(C)C(=O)[C@@H]3C2)c2ccccc2n1 [Compound 71, Cyclopropanesulfonic acid [17-(2-isopropylamino-quinazolin-4-yloxy)-13-methyl-2,14-dioxo-3,13-diaza-tricyclo[13.3.0.0*4,6*]octadec-7-ene-4-carbonyl]-amide] | 200 to 990 | 0.1 to 4.9
5 | COc1ccc2c(O[C@@H]3C[C@H]4C(=O)N[C@]5(C(=O)NS(=O)(=O)C(C)C)C[C@H]5/C=C\CCCCN(C)C(=O)[C@@H]4C3)nc(-c3cccc(F)c3)nc2c1C [Compound 162, Propane-2-sulfonic acid {17-[2-(3-fluoro-phenyl)-7-methoxy-8-methyl-quinazolin-4-yloxy]-13-methyl-2,14-dioxo-3,13-diazatricyclo[13.3.0.0*4,6*]octadec-7-ene-4-carbonyl}-amide] | 200 to 990 | 0.1 to 4.9
6 | COc1ccc(-c2nc(O[C@@H]3C[C@H]4C(=O)N[C@]5(C(=O)NS(=O)(=O)C6(C)CC6)C[C@H]5/C=C\CCCCN(C)C(=O)N4C3)c3ccc(OC)c(C)c3n2)cc1 [Compound 132, 1-Methyl-cyclopropanesulfonic acid {17-[7-methoxy-2-(4-methoxy-phenyl)-8-methyl-quinazolin-4-yloxy]-13-methyl-2,14-dioxo-3,13,15-triaza-tricyclo[13.3.0.0*4,6*]octadec-7-ene-4-carbonyl}-amide] | 0.5 to 199 | 0.1 to 4.9
7 | COc1ccc2c(O[C@@H]3C[C@H]4C(=O)N[C@]5(C(=O)NS(=O)(=O)C6CC6)C[C@H]5/C=C\CCCCN(C)C(=O)N4C3)nc(-c3cccc(C)n3)nc2c1C [Compound 119, Cyclopropanesulfonic acid {17-[7-methoxy-8-methyl-2-(6-methyl-pyridin-2-yl)-quinazolin-4-yloxy]-13-methyl-2,14-dioxo-3,13,15-triazatricyclo[13.3.0.0*4,6*]octadec-7-ene-4-carbonyl}-amide] | 0.5 to 199 | 0.1 to 4.9
8 | COc1ccc2c(O[C@@H]3C[C@H]4C(=O)N[C@]5(C(=O)NS(=O)(=O)C6CC6)C[C@H]5/C=C\CCCCN(C)C(=O)[C@@H]4C3)nc(-c3cccc(F)c3)nc2c1C [Compound 160, Cyclopropanesulfonic acid {17-[2-(3-fluoro-phenyl)-7-methoxy-8-methyl-quinazolin-4-yloxy]-13-methyl-2,14-dioxo-3,13-diaza-tricyclo[13.3.0.0*4,6*]octadec-7-ene-4-carbonyl}-amide] | 0.5 to 199 | 0.1 to 4.9
9 | COc1ccc2c(O[C@@H]3C[C@H]4C(=O)N[C@]5(C(=O)NS(=O)(=O)C6(C)CC6)C[C@H]5/C=C\CCCCN(C)C(=O)[C@@H]4C3)nc(-c3cccc(F)c3)nc2c1C [Compound 161, 1-Methyl-cyclopropanesulfonic acid {17-[2-(3-fluoro-phenyl)-7-methoxy-8-methyl-quinazolin-4-yloxy]-13-methyl-2,14-dioxo-3,13-diazatricyclo[13.3.0.0*4,6*]octadec-7-ene-4-carbonyl}-amide] | 0.5 to 199 | 0.1 to 4.9
10 | CN1CCCC/C=C\[C@@H]2C[C@@]2(C(=O)NS(=O)(=O)C2CC2)NC(=O)[C@@H]2C[C@@H](Oc3nc(-c4ccc(C#N)cc4)nc4ccccc34)C[C@H]2C1=O [Compound 73, Cyclopropanesulfonic acid {17-[2-(4-cyano-phenyl)-quinazolin-4-yloxy]-13-methyl-2,14-dioxo-3,13-diaza-tricyclo[13.3.0.0*4,6*]octadec-7-ene-4-carbonyl}-amide] | > 10000 | 100 to 1000
11 | COc1ccc2c(O[C@@H]3C[C@H]4C(=O)N[C@]5(C(=O)NS(=O)(=O)C6CC6)C[C@H]5/C=C\CCCCN(C)C(=O)N4C3)nc(-c3ccncc3)nc2c1C [Compound 179, Cyclopropanesulfonic acid [17-(7-methoxy-8-methyl-2-pyridin-4-yl-quinazolin-4-yloxy)-13-methyl-2,14-dioxo-3,13,15-triaza-tricyclo[13.3.0.0*4,6*]octadec-7-ene-4-carbonyl]-amide] | 0.5 to 199 | 0.1 to 4.9
12 | COc1ccc2c(O[C@@H]3C[C@H]4C(=O)NC5(C(=O)NS(=O)(=O)C6CC6)C[C@H]5/C=C\CCCCN(C)C(=O)N4C3)nc(-c3ccc(F)cc3)nc2c1C (some centres unmarked) [Compound 98, Cyclopropanesulfonic acid {17-[2-(4-fluoro-phenyl-(7-methoxy-8-methyl-quinazolin-4-yloxy)-13-methyl-2,14-dioxo-3,13,15-triaza-tricyclo[13.3.0.0*4,6*]octadec-7-ene-4-carbonyl}-amide] | 0.5 to 199 | 0.1 to 4.9
13 | COc1ccc2c(O[C@@H]3C[C@H]4C(=O)N[C@]5(C(=O)NS(=O)(=O)C6CC6)C[C@H]5/C=C\CCCCCNC(=O)N4C3)nc(-c3ccc(F)cc3)nc2c1C [Compound 104, Cyclopropanesulfonic acid {18-[2-(4-fluoro-phenyl)-7-methoxy-8-methyl-quinazolin-4-yloxy]-2,15-dioxo-3,14,16-triaza-tricyclo[14.3.0.0*4,6*]nonadec-7-ene-4-carbonyl}-amide] | 0.5 to 199 | 0.1 to 4.9
